Tests used:
[1] = system: MOLT4 xenograft tumor model; experiment: Human acute lymphoblastic leukemia MOLT4 cell subcutaneous xenograft tumor model; assay type: in vivo
Procedure: Human acute lymphoblastic leukemia cells MOLT4 (Cat. No.: ECACC-85011413) were in vitro suspended and cultured in RPMI 1640 medium containing 10% fetal bovine serum, 100 U/mL penicillin and 100 μg/mL streptomycin, in a 37° C. and 5% CO2 incubator. When the cell saturation achieved 80%-90% and the cell number reached the requirement, the cells were collected, counted and inoculated.
0.2 mL (10×10^6) of MOLT4 cells (added with Matrigel at a volume ratio of 1:1) were subcutaneously inoculated on the right back of each mouse. The grouping administration was started when the average tumor volume reached about 148 mm^3.
The changes of tumor volume and tumor weight in each group after administration of test drugs for treating SCID Beige mice with MOLT4 cell subcutaneous xenograft tumor are shown in Table 10 and Table 11.

[2] = system: Colo 205 human colon cancer model; experiment: Colo 205 human colon cancer subcutaneous xenograft tumor model; assay type: in vivo
Procedure: Experimental animals were 68 (48 plus 20 spare mice) BALB/c female nude mice, 7-8 weeks old (the age of mice at the time of tumor cell inoculation) and weighing 15.7-20.7 g, which were purchased from Beijing VitalRiver Experimental Animal Technology Co., Ltd. Breeding environment was SPF grade. The experimental animals were all kept in an independent ventilated box with constant temperature and humidity. The temperature of the breeding room was 20-26° C., the humidity was 40-70%. The breeding room was ventilated 10-20 times per hour. The alternating time of day and night was 12 h/12 h. The mice were continuously supplied with cobalt 60 radiation sterilized mouse complete pellet feed, and had free access to the feed. The mice drank tap water (available after sterilization with high-pressure steam), which was continuously supplied using a water-drinking bottle, and had free access to water. The mouse box was a polysulfone mouse box, which was used after sterilization under high pressure, with a size of 325 mm×210 mm×180 mm.
Colo 205 cells were cultured in RPMI1640 medium containing 10% fetal bovine serum. Colo 205 cells in the exponential growth phase were collected, resuspended in PBS to an appropriate concentration and mixed with Matrigel at a ratio of 1:1. The resulting mixture was used for subcutaneous inoculation of tumor in mice. 5×10^6 Colo 205 cells were subcutaneously inoculated on the right side of female mice. The day of inoculation was defined as Day 0. When the average tumor volume reached 110.26 mm^3, the mice were randomly divided into groups according to tumor size.
Relative tumor proliferation rate, T/C %, refers to the percentage value of the relative tumor volume or tumor weight of the treatment group and the control group at a certain time point, which was calculated as follows:
T/C %=TRTV/CRTV×100% (TRTV: the average RTV of the treatment group; CRTV: the average RTV of the vehicle control group; RTV=Vt/V0, where V0 is the tumor volume of the animal when grouped, and Vt is the tumor volume of the animal after treatment); • or T/C %=TTW/CTW×100% (TTW: the average tumor weight of the treatment group at the end of the experiment; CTW: the average tumor weight of the vehicle control group at the end of the experiment). • Relative tumor inhibition rate, TGI (%), was calculated according to the formula as follows: TGI %=(1−T/C)×100%. (T and C are the relative tumor volumes (RTV) or tumor weights (TW) of the treatment group and the control group at a specific time point).

[3] = 28th day after start of administration, azvudine 1 mg/kg
[4] = based on tumor volume, 28th day, azvudine 2 mg/kg in Table 10, cyclophosphamide 50 mg/kg, combination 1 + 50 mg/kg
[5] = based on tumor volume, 25th day after inoculation, p.o. QD x 3 weeks, azvudine 1 mpk, capecitabine 400 mpk, combination 1 + 400 mpk
[6] = based on tumor weight, azvudine 1 mpk, capecitabine 400 mpk, combination 1 + 400 mpk

SMILES: [N-]=[N+]=N[C@]1(CO)O[C@@H](n2ccc(N)nc2=O)[C@@H](F)[C@@H]1O [Azvudine, azvudine]
- T/C [1, 3]: 33.89
- TGI [1, 3]: 69.73%
- Tumor volume [1, 3]: 979 mm^3
- Tumor volume (mm^3) on the 28th day ([1]; 28th day of administration, SCID Beige mice, QD x 4 weeks, azvudine 2 mg/kg in Table 10, cyclophosphamide 50 mg/kg i.p., combination 1 + 50 mg/kg): 986 ± 179 mm^3
- Tumor weight (g) (On the 28th day) ([1]; 28th day of administration, azvudine 1 mg/kg, cyclophosphamide 50 mg/kg, combination 1 + 50 mg/kg): 1.168 ± 0.145 g
- T/C (%) [1, 4]: 33.55%
- TGI (%) [1, 4]: 69.49%
- T/Cweight (%) ([1]; based on tumor weight, 28th day, azvudine 1 mg/kg, cyclophosphamide 50 mg/kg, combination 1 + 50 mg/kg): 39.31%
- Tumor volume ([2]; 25th day after inoculation (20th day after grouping), BALB/c nude mice, p.o. QD x 3 weeks, azvudine 1 mpk, capecitabine 400 mpk, combination 1 + 400 mpk): 985.14 ± 108.58(6)
- average tumor volume ([2]; 25th day after tumor inoculation (20th day after grouping), azvudine 1 mg/kg, capecitabine 400 mg/kg, combination 1 + 400 mg/kg): 985.14 mm^3
- T/C (%) [2, 5]: 67.57%
- TGI (%) [2, 5]: 32.43%
- T/C (%) [2, 6]: 28.19%
- TGI [2, 6]: 71.81
- Tumor weight (mg) ([2]; end of experiment, p.o. QD x 3 weeks, azvudine 1 mpk, capecitabine 400 mpk, combination 1 + 400 mpk): 986.10 ± 107.78(6) mg

— patent US12268702B2, “Antitumor pharmaceutical composition comprising azvudine and chemotherapeutic agent” (HENAN GENUINE BIOTECH CO., LTD., priority 2023, dated 2025)
